In US12577417B2, “Active energy ray-curable aqueous ink, recording method and recording apparatus” (CANON KABUSHIKI KAISHA, priority 2021, dated 2026):

Experiment: Water solubility of bifunctional polymerizable monomer
Assay type: physicochemical
Conditions: mixed with ion exchanged water at 25° C.; concentration at which no insoluble matter is found by visual observation
Protocol: When a bifunctional polymerizable monomer is mixed with ion exchanged water at 25° C. and the concentration at which no insoluble matter is found as a result of visual observation of the resulting mixture is shown as water solubility. Higher water solubility is preferred and the evaluation criteria is as follows.
A: no insoluble matter is found at 20% by mass
B: no insoluble matter is found at 5% by mass
C: no insoluble matter is found at 1% by mass
D: an insoluble matter is found at 1% by mass

Question: For C=CC(=O)NCCC(=O)NCCCNC(=O)CCNC(=O)C=C [Curable substance 3], which Water solubility is on record?
Answer: B (no insoluble matter is found at 5% by mass)

Question: With C=CC(=O)NCCCCCC(=O)NCCNC(=O)CCCCCNC(=O)C=C [Curable substance 12] as the compound, how does the Water solubility read?
Answer: C (no insoluble matter is found at 1% by mass)

Question: With C=CC(=O)NCCC(=O)NCCOCCOCCNC(=O)CCNC(=O)C=C [Curable substance 1] as the compound, how does the Water solubility read?
Answer: A (no insoluble matter is found at 20% by mass)

Question: With C=CC(=O)NCCCOCCOCCOCCCN(O)C(=O)C=C [Comparative compound 1, reference compound] as the compound, how does the Water solubility read?
Answer: A (no insoluble matter is found at 20% by mass)

Question: Which Water solubility does the source give for C=CC(=O)NCCCCCC(=O)NCCOCCOCCNC(=O)CCCCCNC(=O)C=C [Curable substance 2] here?
Answer: C (no insoluble matter is found at 1% by mass)

Question: With C=CC(=O)NCCCC(=O)NCCCNC(=O)CCCNC(=O)C=C [Curable substance 4] as the compound, how does the Water solubility read?
Answer: B (no insoluble matter is found at 5% by mass)

Question: For C=CC(=O)NCCOCCOCCNC(=O)C=C [Comparative compound 2, reference compound], which Water solubility is on record?
Answer: A (no insoluble matter is found at 20% by mass)
